Measurements from the NIST ThermoML archive (doi:10.1021/acs.jced.5b00654).
“And” between values parts separate entries of the source, which are not always exact repeats. Identical values can stand only once.

Settings: Fluid (supercritical or subcritical phases); for viscosity: Vibrating wire viscometry; for mass density: Buoyancy - hydrostatic balance with magnetic suspension - one sinker

CCCC [butane]
Settings	mass density	viscosity
428.09 K, 5150.2 kPa	–	0.04428 mPa·s
428.1 K, 796.14 kPa	14.038 kg/m3	0.01066 mPa·s
428.1 K, 796.19 kPa	14.041 kg/m3	0.01066 mPa·s
428.1 K, 904.9 kPa	16.138 kg/m3	0.01069 mPa·s
428.1 K, 1964.1 kPa	40.163 kg/m3	0.01117 mPa·s
428.1 K, 4625.9 kPa	341.66 kg/m3	0.04038 mPa·s
428.11 K, 131.61 kPa	2.1741 kg/m3	0.01052 mPa·s
428.11 K, 131.64 kPa	2.1741 kg/m3	0.01052 mPa·s
428.11 K, 904.86 kPa	16.141 kg/m3	0.01069 mPa·s
428.11 K, 1964.3 kPa	40.167 kg/m3	0.01118 mPa·s
428.11 K, 4626.6 kPa	341.66 kg/m3	0.04035 mPa·s
428.11 K, 4626.8 kPa	341.65 kg/m3	0.04033 mPa·s
428.12 K, 685.03 kPa	11.939 kg/m3	0.01063 mPa·s
428.12 K, 2306.2 kPa	49.889 kg/m3 and 49.887 kg/m3	0.01144 mPa·s
428.12 K, 3964.9 kPa	218.37 kg/m3	0.02262 mPa·s
428.12 K, 3984.8 kPa	246.5 kg/m3	0.02576 mPa·s
428.12 K, 3984.9 kPa	246.49 kg/m3	0.02577 mPa·s
428.13 K, 480.91 kPa	8.2126 kg/m3	0.01059 mPa·s
428.13 K, 578.67 kPa	9.9774 kg/m3	0.01061 mPa·s
428.13 K, 684.54 kPa	11.929 kg/m3	0.01063 mPa·s
428.13 K, 2624.6 kPa	60.353 kg/m3	0.01177 mPa·s
428.13 K, 2624.7 kPa	60.36 kg/m3	0.01177 mPa·s
428.13 K, 2862.9 kPa	69.476 kg/m3	0.01209 mPa·s
428.13 K, 3655.2 kPa	119.22 kg/m3	0.01443 mPa·s
428.13 K, 3964.8 kPa	218.33 kg/m3	0.02263 mPa·s
428.13 K, 3990.1 kPa	251.58 kg/m3 and 251.63 kg/m3	0.02637 mPa·s and 0.02638 mPa·s
428.13 K, 5948.9 kPa	378 kg/m3	0.04846 mPa·s
428.13 K, 5949.6 kPa	378.01 kg/m3 and 378.02 kg/m3	0.04837 mPa·s and 0.04844 mPa·s
428.14 K, 480.81 kPa	8.2112 kg/m3	0.01059 mPa·s
428.14 K, 578.76 kPa	9.9803 kg/m3	0.01061 mPa·s
428.14 K, 1041.2 kPa	18.856 kg/m3	0.01073 mPa·s
428.14 K, 2862.8 kPa	69.471 kg/m3	0.01209 mPa·s
428.14 K, 3427.1 kPa	99.322 kg/m3	0.01338 mPa·s
428.14 K, 3655.7 kPa	119.23 kg/m3	0.01444 mPa·s
428.14 K, 4145.9 kPa	304.6 kg/m3	0.03374 mPa·s
428.14 K, 4146.2 kPa	304.61 kg/m3	0.03373 mPa·s
428.14 K, 30018 kPa	498.2 kg/m3	0.09505 mPa·s
428.14 K, 30022 kPa	498.2 kg/m3	0.09486 mPa·s
428.14 K, 30023 kPa	498.21 kg/m3	0.09498 mPa·s
428.15 K, 1040.7 kPa	18.847 kg/m3	0.01073 mPa·s
428.15 K, 3263.7 kPa	88.854 kg/m3	0.01288 mPa·s
428.15 K, 3427.2 kPa	99.316 kg/m3	0.01337 mPa·s
428.15 K, 4067.3 kPa	289 kg/m3	0.03129 mPa·s
428.15 K, 4067.5 kPa	288.98 kg/m3	0.03132 mPa·s
428.15 K, 12773 kPa	440.28 kg/m3	0.06754 mPa·s
428.15 K, 17075 kPa	460.12 kg/m3	0.07551 mPa·s
428.15 K, 17077 kPa	460.12 kg/m3	0.07561 mPa·s
428.16 K, 62.1 kPa	1.0176 kg/m3	0.01051 mPa·s
428.16 K, 3263.8 kPa	88.856 kg/m3	0.01289 mPa·s
428.16 K, 7467.1 kPa	399.68 kg/m3	0.05418 mPa·s
428.16 K, 7467.5 kPa	399.69 kg/m3	0.05413 mPa·s
428.16 K, 9661.1 kPa	420.21 kg/m3	0.06045 mPa·s
428.16 K, 9662.3 kPa	420.22 kg/m3	0.06047 mPa·s
428.16 K, 12732 kPa	440.05 kg/m3	0.06741 mPa·s
428.16 K, 12735 kPa	440.06 kg/m3	0.06744 mPa·s
428.17 K, 62.1 kPa	1.0183 kg/m3	0.01051 mPa·s
428.17 K, 3976.1 kPa	230.45 kg/m3	0.02394 mPa·s
428.17 K, 7466.2 kPa	399.67 kg/m3	0.05411 mPa·s
428.18 K, 62.1 kPa	1.0176 kg/m3	0.01051 mPa·s
428.18 K, 1098.5 kPa	20.025 kg/m3	0.01075 mPa·s
428.18 K, 1099.1 kPa	20.038 kg/m3	0.01075 mPa·s
428.18 K, 3790.9 kPa	137.62 kg/m3	0.01558 mPa·s
428.18 K, 3953.3 kPa	199.18 kg/m3	0.02063 mPa·s
428.18 K, 3976.3 kPa	230.48 kg/m3	0.02395 mPa·s
428.18 K, 4312 kPa	322.22 kg/m3	0.03673 mPa·s
428.18 K, 4312.4 kPa	322.24 kg/m3 and 322.25 kg/m3	0.03673 mPa·s and 0.03668 mPa·s
428.19 K, 3883.8 kPa	159.22 kg/m3	0.01712 mPa·s
428.19 K, 3884.1 kPa	159.21 kg/m3	0.01712 mPa·s
428.19 K, 3938.7 kPa	185.24 kg/m3	0.01931 mPa·s
428.19 K, 3939.2 kPa	185.3 kg/m3	0.01933 mPa·s
428.19 K, 3953.5 kPa	199.12 kg/m3	0.02064 mPa·s
428.2 K, 3793.8 kPa	137.58 kg/m3	0.01557 mPa·s
428.2 K, 4030 kPa	274.89 kg/m3	0.02934 mPa·s
428.2 K, 4030.1 kPa	274.9 kg/m3	0.02934 mPa·s
428.2 K, 22973 kPa	480.02 kg/m3	0.08495 mPa·s
428.21 K, 1539.8 kPa	29.634 kg/m3	0.01094 mPa·s
428.21 K, 1540.1 kPa	29.642 kg/m3	0.01093 mPa·s
428.21 K, 22974 kPa	480.02 kg/m3	0.08503 mPa·s and 0.08492 mPa·s
428.22 K, 3107.8 kPa	80.455 kg/m3	0.01252 mPa·s
428.23 K, 3108.6 kPa	80.486 kg/m3	0.01253 mPa·s
428.34 K, 3805.1 kPa	138.83 kg/m3	0.01567 mPa·s
428.39 K, 3806.5 kPa	138.8 kg/m3	0.01569 mPa·s
448.09 K, 4846.2 kPa	174.16 kg/m3	0.01886 mPa·s
448.11 K, 5054.5 kPa	201.47 kg/m3	0.02122 mPa·s
448.11 K, 5054.8 kPa	201.47 kg/m3	0.02124 mPa·s
448.11 K, 6144.8 kPa	304.18 kg/m3	0.0341 mPa·s
448.11 K, 6145 kPa	304.17 kg/m3	0.0341 mPa·s
448.13 K, 4161.6 kPa	114.81 kg/m3	0.01481 mPa·s and 0.01479 mPa·s
448.13 K, 4847 kPa	174.1 kg/m3	0.01885 mPa·s
448.13 K, 5203.2 kPa	222.02 kg/m3	0.02331 mPa·s
448.13 K, 5203.5 kPa	222.03 kg/m3	0.02333 mPa·s
448.13 K, 7189.8 kPa	340.36 kg/m3	0.04055 mPa·s
448.14 K, 7191 kPa	340.37 kg/m3	0.04061 mPa·s
448.14 K, 18184 kPa	440.74 kg/m3	0.06811 mPa·s
448.14 K, 18187 kPa	440.74 kg/m3	0.06813 mPa·s
448.14 K, 29460 kPa	478.91 kg/m3	0.08497 mPa·s
448.15 K, 220.17 kPa	3.4915 kg/m3	0.01102 mPa·s
448.15 K, 618.43 kPa	10.135 kg/m3	0.0111 mPa·s
448.15 K, 618.6 kPa	10.141 kg/m3	0.01109 mPa·s
448.15 K, 807.6 kPa	13.453 kg/m3	0.01114 mPa·s
448.15 K, 1661.9 kPa	30.078 kg/m3	0.01146 mPa·s
448.15 K, 3073.3 kPa	66.943 kg/m3	0.01257 mPa·s
448.15 K, 5551.9 kPa	263.05 kg/m3	0.02811 mPa·s
448.15 K, 5553.7 kPa	263.02 kg/m3	0.02811 mPa·s
448.15 K, 11528 kPa	400.23 kg/m3	0.05478 mPa·s
448.15 K, 11529 kPa	400.23 kg/m3	0.05477 mPa·s
448.15 K, 14319 kPa	420.46 kg/m3	0.06101 mPa·s
448.15 K, 29472 kPa	478.91 kg/m3	0.08489 mPa·s
448.16 K, 220.38 kPa	3.4965 kg/m3	0.01101 mPa·s
448.16 K, 430.17 kPa	6.9362 kg/m3	0.01106 mPa·s
448.16 K, 431.02 kPa	6.95 kg/m3	0.01106 mPa·s
448.16 K, 508.5 kPa	8.2591 kg/m3	0.01107 mPa·s
448.16 K, 509.69 kPa	8.28 kg/m3	0.01107 mPa·s
448.16 K, 807.76 kPa	13.456 kg/m3	0.01115 mPa·s
448.16 K, 1662.2 kPa	30.086 kg/m3	0.01146 mPa·s
448.16 K, 2073.7 kPa	39.305 kg/m3	0.01169 mPa·s
448.16 K, 2511.8 kPa	50.321 kg/m3	0.01201 mPa·s
448.16 K, 2512.1 kPa	50.329 kg/m3	0.012 mPa·s
448.16 K, 3073.3 kPa	66.941 kg/m3	0.01257 mPa·s
448.16 K, 6551.1 kPa	321.12 kg/m3	0.03695 mPa·s
448.16 K, 6551.4 kPa	321.12 kg/m3	0.03694 mPa·s
448.16 K, 8139.4 kPa	359.98 kg/m3	0.04474 mPa·s
448.16 K, 8140.6 kPa	359.99 kg/m3	0.04466 mPa·s
448.16 K, 23152 kPa	460.08 kg/m3	0.07601 mPa·s
448.17 K, 1158.4 kPa	19.932 kg/m3	0.01125 mPa·s
448.17 K, 2073 kPa	39.287 kg/m3	0.01169 mPa·s
448.17 K, 4498.3 kPa	138.72 kg/m3	0.01627 mPa·s
448.17 K, 5346.6 kPa	240.34 kg/m3	0.02533 mPa·s
448.17 K, 9537.4 kPa	380.12 kg/m3	0.04948 mPa·s
448.17 K, 9538.6 kPa	380.13 kg/m3	0.0494 mPa·s
448.17 K, 14321 kPa	420.46 kg/m3	0.06093 mPa·s
448.17 K, 23154 kPa	460.09 kg/m3	0.07593 mPa·s
448.18 K, 3433.7 kPa	79.735 kg/m3	0.01307 mPa·s
448.18 K, 3433.9 kPa	79.739 kg/m3	0.01308 mPa·s
448.18 K, 3747.8 kPa	92.905 kg/m3	0.01367 mPa·s
448.18 K, 4498.1 kPa	138.68 kg/m3	0.01625 mPa·s
448.18 K, 5346.7 kPa	240.34 kg/m3	0.02534 mPa·s
448.19 K, 3747.9 kPa	92.91 kg/m3	0.01367 mPa·s
448.23 K, 4727 kPa	160.07 kg/m3	0.01777 mPa·s
448.23 K, 4727.1 kPa	160.07 kg/m3	0.01776 mPa·s
448.27 K, 5784.6 kPa	281.65 kg/m3	0.03063 mPa·s
448.28 K, 5785.1 kPa	281.66 kg/m3	0.03066 mPa·s
